Assay results published in paper PMC12366361, “Biochemical properties of glycerol kinase from the hypersaline-adapted archaeon Haloferax volcanii” (Applied and Environmental Microbiology, 2025).
Each block holds one molecule with its values, some of them ahead of it.

Legend:
[1] = molecular target: T1, glycerol kinase (GK, His-GK) (Haloferax volcanii, UniProt D4GYI5); test: coupled enzyme kinetics of purified His-GK (Hill fit, n = […]); further DSF stabilization together with glycerol ([…]°C); format: biochemical
T1 construct: gene glpK; N-terminal His-tagged GK (His-GK)
T1 sequence (D4GYI5 1-510): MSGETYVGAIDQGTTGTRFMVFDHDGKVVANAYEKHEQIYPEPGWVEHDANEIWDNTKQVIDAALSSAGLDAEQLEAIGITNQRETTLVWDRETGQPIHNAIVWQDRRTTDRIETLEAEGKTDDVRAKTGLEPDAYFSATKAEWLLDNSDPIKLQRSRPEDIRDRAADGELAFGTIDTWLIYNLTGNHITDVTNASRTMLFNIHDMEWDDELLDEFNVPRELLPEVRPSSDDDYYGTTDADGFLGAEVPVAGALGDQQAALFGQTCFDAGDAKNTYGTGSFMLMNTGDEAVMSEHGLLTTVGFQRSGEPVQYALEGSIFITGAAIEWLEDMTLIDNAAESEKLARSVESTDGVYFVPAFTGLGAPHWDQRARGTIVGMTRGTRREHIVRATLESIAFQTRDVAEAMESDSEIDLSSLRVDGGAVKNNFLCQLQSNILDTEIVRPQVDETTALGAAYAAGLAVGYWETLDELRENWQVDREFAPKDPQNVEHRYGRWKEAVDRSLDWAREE

[2] = molecular target: T1, glycerol kinase (GK, His-GK); test: coupled enzyme kinetics of purified His-GK (Hill fit, n = […]); supported by DSF shift ([…] to […]°C) and SEC dimer-to-tetramer shift; format: biochemical
[3] = molecular target: the molecule itself; test: SEC; Superdex 200 Increase 10/300 GL, 50 mM HEPES pH 7.5, 2 M NaCl, 1 mM DTT, without glycerol; 0.3 mL/min; Ni2+-NTA-purified His-GK dialysed against the same buffer; mass from Kav against standards
[4] = molecular target: the molecule itself; test: SEC; Superdex 200 Increase 10/300 GL, 50 mM HEPES pH 7.5, 2 M NaCl, 1 mM DTT, with 10% (vol/vol) glycerol; 0.3 mL/min; Ni2+-NTA-purified His-GK dialysed against the same buffer; the isolated tetramer was also kept overnight at 4°C and run again; mass from Kav against standards

Molecule: Nc1ncnc2c1ncn2[C@@H]1O[C@H](COP(=O)(O)OP(=O)(O)OP(=O)(O)O)[C@@H](O)[C@H]1O [ATP]
Kd [1]: 1600 ± 80 µM

Kd [2]: 1440 ± 160 µM
Molecule: OCC(O)CO [glycerol]

B1: Haloferax volcanii glycerol kinase fused to an N-terminal polyhistidine tag (His-GK) (enzyme, UniProt D4GYI5 1-510, looked up)
chain: T1 sequence (D4GYI5 1-510)
notes: calculated His-GK monomer 56.7 kDa; Found by SEC as a homodimer (no glycerol) or as a homodimer plus a homotetramer (10% glycerol); also called GlpK; H. volcanii GK; source: H. volcanii H1207-pJAM4351 grown in GlyMM, purified (Ni2+-NTA resin, then SEC); not shown: His6, N-terminal, kept
stoichiometry N [3]: 2
stoichiometry N [4]: 4
